# Results taken from publication PMC2574903 (Biochimica et biophysica acta, 2008).
# Where two headings read alike, the source gives them in different places.
# Tests used:
# [1] = tested on: intracellular carboxylesterase activity in U373MG cells; conditions: cited from earlier work
# porcine pancreatic CEL = molecular target: T1, porcine pancreatic CEL (Sus scrofa, UniProt A0A286ZKB1); experiment: Hydrolysis of 4-MUBO by porcine bile-salt stimulated cholesterol esterase; assay type: biochemical; conditions: 4-MUBO substrate; no bile salts added; Supplementary Fig. 1
# T1 sequence (A0A286ZKB1 1-682): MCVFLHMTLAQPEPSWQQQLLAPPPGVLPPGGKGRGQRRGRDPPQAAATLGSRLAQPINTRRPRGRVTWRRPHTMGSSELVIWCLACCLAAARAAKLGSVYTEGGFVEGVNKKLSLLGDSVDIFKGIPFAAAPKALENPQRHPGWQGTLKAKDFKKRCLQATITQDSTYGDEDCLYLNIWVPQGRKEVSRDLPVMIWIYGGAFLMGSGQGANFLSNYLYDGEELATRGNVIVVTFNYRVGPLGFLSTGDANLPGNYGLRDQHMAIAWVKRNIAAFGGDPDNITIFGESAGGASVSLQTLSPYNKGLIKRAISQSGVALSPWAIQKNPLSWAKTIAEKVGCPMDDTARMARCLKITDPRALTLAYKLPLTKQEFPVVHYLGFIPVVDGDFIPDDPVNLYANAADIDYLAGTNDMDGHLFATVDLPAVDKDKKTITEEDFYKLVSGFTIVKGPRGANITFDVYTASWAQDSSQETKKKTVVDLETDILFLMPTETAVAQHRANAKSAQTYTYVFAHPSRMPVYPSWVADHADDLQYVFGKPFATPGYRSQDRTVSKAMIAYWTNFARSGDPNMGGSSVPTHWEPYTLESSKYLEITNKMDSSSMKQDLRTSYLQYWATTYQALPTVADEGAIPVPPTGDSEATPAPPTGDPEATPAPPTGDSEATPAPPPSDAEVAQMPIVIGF
# [2] = molecular target: T2, carboxylesterase activity in THP-1 macrophages (Homo sapiens, UniProt P23141); assay type: cell-based
# T2 sequence (P23141 18-567): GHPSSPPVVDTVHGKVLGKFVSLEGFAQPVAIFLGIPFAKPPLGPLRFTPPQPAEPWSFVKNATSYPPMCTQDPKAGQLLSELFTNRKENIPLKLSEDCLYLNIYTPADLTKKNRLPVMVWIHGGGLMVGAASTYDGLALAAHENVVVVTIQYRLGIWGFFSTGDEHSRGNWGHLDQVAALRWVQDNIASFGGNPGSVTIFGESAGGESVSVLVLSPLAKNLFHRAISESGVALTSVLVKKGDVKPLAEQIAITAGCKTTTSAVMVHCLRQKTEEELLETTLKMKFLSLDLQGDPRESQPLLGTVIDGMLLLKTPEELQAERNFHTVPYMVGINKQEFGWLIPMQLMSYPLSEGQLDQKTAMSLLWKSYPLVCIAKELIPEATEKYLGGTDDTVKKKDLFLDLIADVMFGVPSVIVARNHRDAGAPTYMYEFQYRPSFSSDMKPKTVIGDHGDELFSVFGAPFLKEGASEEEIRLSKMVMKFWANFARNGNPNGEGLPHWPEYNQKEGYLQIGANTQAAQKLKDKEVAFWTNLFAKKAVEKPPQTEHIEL
# THP-1 macrophages = experiment: Cholesteryl ester retention in cholesterol-loaded THP-1 macrophages; assay type: cell-based, human; conditions: for Total cellular cholesterol content of macrophages / Free cholesterol levels: 50 μM benzil or 10 μM paraoxon, 48-h efflux period; for Free cholesterol levels: vs vehicle
# CES1 [3] = molecular target: T3, CES1 (Homo sapiens, UniProt P23141); experiment: Hydrolysis of 4-methylumbelliferyl oleate; assay type: biochemical
# T3 sequence (P23141 18-567): T2 sequence (P23141 18-567)
# [4] = cited from earlier work
# [5] = molecular target: T4, carboxylesterase activity (CES1) in intact THP-1 cells (Homo sapiens, UniProt P23141); experiment: Carboxylesterase activity after 24-h treatment of intact THP-1 monocytes; assay type: cell-based; conditions: for Inhibition of carboxylesterase activity in intact THP-1 monocytes: 24 h treatment of intact cells, activity measured in lysates; for Relative effectiveness at inhibiting carboxylesterase activity in intact cells: 24 h treatment, comparison of the three oxons
# T4 sequence (P23141 18-567): T2 sequence (P23141 18-567)
# [6] = molecular target: T5, carboxylesterase activity of human THP-1 cell lysates (CES1) (Homo sapiens, UniProt P23141); assay type: biochemical; conditions: para-nitrophenyl valerate
# T5 sequence (P23141 18-567): T2 sequence (P23141 18-567)
# THP-1 cells = experiment: Cell viability by Trypan Blue exclusion after oxon exposure; assay type: cell-based, human; conditions: 24 h, concentrations of oxon used, data not shown
# [7] = tested on: cholesteryl ester hydrolase activity in human THP1 cell lysate; experiment: Hydrolysis of cholesteryl [1-14C]oleate; assay type: biochemical; conditions: 10 μM paraoxon for 10 min before 75 μM cholesteryl [1-14C]oleate
# CES1 [8] = molecular target: T3, CES1; assay type: binding
# CES1 protein expression = experiment: Western blot of CES1 protein in paraoxon-treated THP-1 cells; assay type: cell-based, human; conditions: 10 μM paraoxon 24 h
# [9] = tested on: lipolytic activity of THP-1 cell lysates; experiment: Hydrolysis of 4-MUBO by THP-1 cell lysates; assay type: biochemical, human; conditions: paraoxon up to 10 μM; Supplementary Fig. 2
Compound,Inhibition of CEL (porcine pancreatic CEL),Total cellular cholesterol content of macrophages (THP-1 macrophages),Free cholesterol levels (THP-1 macrophages),Lipophilicity rank among the three oxons [4],Inhibition of carboxylesterase activity in intact THP-1 monocytes [5],Relative effectiveness at inhibiting carboxylesterase activity in intact cells [5],Inhibition of carboxylesterase activity in cell lysates [6],Overall cell viability (THP-1 cells),other results
"O=C(C(=O)c1ccccc1)c1ccccc1 [Benzil, diphenylethane-1,2-dione]",does not inhibit,did not significantly change,similar,,,,,,Inhibition of intracellular carboxylesterase activity ([1]; U373MG cells transfected with plasmids containing mammalian CES cDNA): effective inhibitor; Cell permeability ([1]; U373MG cells): cell-permeable; Cytotoxicity ([1]; U373MG cells): non-cytotoxic; Carboxylesterase activity in cell lysate from treated macrophages [2]: not significantly inhibited; Increase in intracellular cholesteryl ester levels (THP-1 macrophages; 50 μM benzil during 48-h cholesterol efflux period): > 3 fold; Inhibition of lipase activity of CES1 (CES1 [3]): can be inhibited
CCOP(=O)(OCC)Oc1nc(Cl)c(Cl)cc1Cl [Chlorpyrifos oxon],,,,most lipophilic,inhibited by each oxon in a dose-dependent manner,least effective,inhibited carboxylesterase activity in cell lysates in a concentration-dependent manner,did not affect overall cell viability,
COP(=O)(OC)Oc1ccc([N+](=O)[O-])cc1 [Methyl paraoxon],,,,least lipophilic,inhibited by each oxon in a dose-dependent manner,,inhibited carboxylesterase activity in cell lysates in a concentration-dependent manner,did not affect overall cell viability,
CCOP(=O)(OCC)Oc1ccc([N+](=O)[O-])cc1 [Paraoxon],very sensitive,did not significantly change,modest but significant reduction,,inhibited by each oxon in a dose-dependent manner,most effective,inhibited carboxylesterase activity in cell lysates in a concentration-dependent manner,did not affect overall cell viability,"Reduction of CEH activity of THP1 cell lysates [7]: 23%; Paraoxon concentrations that completely inhibited FP-biotin labeling of CES1 (CES1 [8]; lysate 1 mg/ml pre-treated 15 min at 37°C, then 2 μM FP-biotin 1 h): > 1 nM; Effect on FP-biotin labeling of CES1 (CES1 [8]; pre-treatment with paraoxon at 0.01 nM): did not prevent labeling; Amount of CES1 protein compared to control (vehicle) treated cells (CES1 protein expression): no difference; Inhibition of lipolytic activity of THP-1 cell lysates toward 4-MUBO [9]: no significant inhibiton of lipase activity; CES1 activity on native PAGE gels ([5]; intact cells, 10 μM paraoxon 24 h, α,β-naphthyl acetate stain): markedly inhibited; Inhibition of carboxylesterase activity in cell lysate from treated macrophages ([2]; 10 μM paraoxon, compared to control cells, p≤0.05): 81%; Intracellular cholesteryl ester retention (THP-1 macrophages; 10 μM paraoxon during 48-h cholesterol efflux): significant increase; Inhibition of lipase activity of CES1 (CES1 [3]; 4-MUBO substrate, Supplementary Fig. 1): can be inhibited"
